Test results as given in ChEMBL document CHEMBL1127429, “4-Deacetyltaxol and 10-acetyl-4-deacetyltaxotere: synthesis and biological evaluation” (J Med Chem, 1994).

Tests used:
[1] = Ratio of ED50 to that of taxol.
[2] = In vitro binding affinity to reduce the supernatant protein concentration of the microtubule

Ratio [1]	ED50 [2]	SMILES
> 32	> 30 µM	CC(=O)O[C@H]1C(=O)[C@@]2(C)[C@H]([C@H](OC(=O)c3ccccc3)[C@]3(O)C[C@H](OC(=O)[C@H](O)[C@@H](NC(=O)c4ccccc4)c4ccccc4)C(C)=C1C3(C)C)[C@]1(O)CO[C@@H]1C[C@@H]2O
> 32	> 30 µM	CC(=O)O[C@H]1C(=O)[C@@]2(C)[C@H]([C@H](OC(=O)c3ccccc3)[C@]3(O)C[C@H](OC(=O)[C@H](O)[C@@H](NC(=O)OC(C)(C)C)c4ccccc4)C(C)=C1C3(C)C)[C@]1(O)CO[C@@H]1C[C@@H]2O
1	0.93 µM	CC(=O)O[C@H]1C(=O)[C@@]2(C)[C@H]([C@H](OC(=O)c3ccccc3)[C@]3(O)C[C@H](OC(=O)[C@H](O)[C@@H](NC(=O)c4ccccc4)c4ccccc4)C(C)=C1C3(C)C)[C@]1(OC(C)=O)CO[C@@H]1C[C@@H]2O
